According to ChEMBL document CHEMBL3351405, “Novel tricyclic pyrazolopyrimidines as potent and selective GPR119 agonists” (Bioorg Med Chem Lett, 2014):
Values after ≈ are worked out from the molar mass of the structure shown.

Columns and labels:
[1] = target: T1, Glucose-dependent insulinotropic receptor (Homo sapiens, UniProt Q8TDV5); assay: Agonist activity at human GPR119 overexpressed in CHO cells assessed as increase in cellular cAMP production by HTRF method; format: functional, cell-based
T1 sequence (Q8TDV5 whole entry): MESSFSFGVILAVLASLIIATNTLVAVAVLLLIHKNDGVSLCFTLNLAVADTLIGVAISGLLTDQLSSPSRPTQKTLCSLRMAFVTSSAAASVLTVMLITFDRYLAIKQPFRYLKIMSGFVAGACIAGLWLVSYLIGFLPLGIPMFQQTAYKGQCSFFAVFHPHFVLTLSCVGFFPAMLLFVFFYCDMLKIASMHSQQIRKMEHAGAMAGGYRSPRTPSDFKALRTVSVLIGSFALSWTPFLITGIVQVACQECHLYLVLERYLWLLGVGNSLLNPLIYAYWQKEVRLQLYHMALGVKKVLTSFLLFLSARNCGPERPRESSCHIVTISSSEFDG

[2] = Clearance in human liver microsomes assessed as extraction ratio; format: ADME; details: read-out: ERH
[3] = tested on: Mus musculus; assay: Dose normalized AUC in po dosed Balb/C mouse; format: ADME, organism-based; details: in vivo
[4] = Solubility of the compound at pH 6.8; format: physicochemical; details: buffer
[5] = target: T2, Glucose-dependent insulinotropic receptor (Homo sapiens) (UniProt Q8TDV5); assay: Agonist activity at human GPR119 overexpressed in CHO cells assessed as increase in cellular cAMP production by HTRF method relative to AR231453; format: functional, cell-based
T2 sequence (whole entry): T1 sequence (Q8TDV5 whole entry)

[6] = target: T3, Glucose-dependent insulinotropic receptor (Mus musculus, UniProt Q7TQP3); assay: Agonist activity at mouse GPR119 overexpressed in CHO cells assessed as increase in cellular cAMP production by HTRF method; format: functional, cell-based
T3 sequence (Q7TQP3 whole entry): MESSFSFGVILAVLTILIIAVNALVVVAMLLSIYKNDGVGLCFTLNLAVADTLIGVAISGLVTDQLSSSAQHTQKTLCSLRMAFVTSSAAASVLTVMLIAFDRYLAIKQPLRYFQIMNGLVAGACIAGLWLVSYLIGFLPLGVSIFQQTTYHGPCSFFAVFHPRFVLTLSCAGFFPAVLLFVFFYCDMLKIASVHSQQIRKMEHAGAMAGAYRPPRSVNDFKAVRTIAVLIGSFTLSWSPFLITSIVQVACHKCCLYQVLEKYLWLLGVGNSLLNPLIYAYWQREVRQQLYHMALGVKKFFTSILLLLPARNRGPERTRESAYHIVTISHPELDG

[7] = target: T4, Glucose-dependent insulinotropic receptor (Mus musculus) (UniProt Q7TQP3); assay: Agonist activity at mouse GPR119 overexpressed in CHO cells assessed as increase in cellular cAMP production by HTRF method relative to AR231453; format: functional, cell-based
T4 sequence (whole entry): T3 sequence (Q7TQP3 whole entry)

[8] = Clearance in rat liver microsomes assessed as extraction ratio; format: ADME; details: read-out: ERH
[9] = Clearance in mouse liver microsomes assessed as extraction ratio; format: ADME; details: read-out: ERH
[10] = tested on: Mus musculus; assay: Increase in plasma GLP1 level in 16 hrs fasted wild-type C57BL/6J mouse at 10 mg/kg, po administered as single dose 30 mins prior to glucose excursion measured after 2 mins by ELISA relative to vehicle-treated control; format: functional
[11] = tested on: Rattus norvegicus; assay: Antidiabetic activity in ZDF fa/fa rat model assessed as reduction in glucose AUC at 3 mg/kg, po qd administered 1 hr prior to glucose bolus after 2 weeks by OGTT relative to vehicle-treated control; format: functional, Zucker; parameters: scale not given: the % may be the effect or the level left
[12] = tested on: Rattus norvegicus; assay: Antidiabetic activity in ZDF fa/fa rat model assessed as reduction in glucose AUC at 10 mg/kg, po qd administered 1 hr prior to glucose bolus after 2 weeks by OGTT relative to vehicle-treated control; format: functional, Zucker; parameters: scale not given: the % may be the effect or the level left
[13] = tested on: Rattus norvegicus; assay: Antidiabetic activity in ZDF fa/fa rat model assessed as reduction in glucose AUC at 30 mg/kg, po qd administered 1 hr prior to glucose bolus after 2 weeks by OGTT relative to vehicle-treated control; format: functional, Zucker; parameters: scale not given: the % may be the effect or the level left

Structure (SMILES) | EC50 [1] | hepatic extraction ratio [2] | Efficacy [5] | EC50 [6] | Efficacy [7] | also measured
[2H]C([2H])(O)c1nn2c3c(cnc2c1-c1ccc(C(F)(F)F)cc1)CN[C@]3(Cc1cccc(F)c1)C(=O)OC | 2 nM | 0.83 | – | – | – | AUC/dose [3]: 7.89 µM·h; solubility [4]: 26 µM (≈ 13.1 µg/mL)
CCOC(=O)[C@]1(Cc2ccccc2)CCc2cnc3c(-c4ccc(C(F)(F)F)cc4)cnn3c21 | 38 nM | – | 66% | – | – | –
CCOC(=O)[C@@]1(Cc2ccccc2)CNc2cnc3c(-c4ccc(C(F)(F)F)cc4)cnn3c21 | 25 nM | 0.75 | 75% | 25 nM | 80% | –
COC(=O)C1(Cc2ccccc2)CCCCc2cnc3c(-c4ccc(C(F)(F)F)cc4)cnn3c21 (racemic) | 74 nM | – | 66% | – | – | –
CCOC(=O)C1(Cc2ccccc2)CCCCCc2cnc3c(-c4ccc(C(F)(F)F)cc4)cnn3c21 (racemic) | 101 nM | – | 56% | – | – | –
Fc1cccc(CC2(C3CC3)NCc3cnc4c(-c5ccc(C(F)(F)F)cc5)cnn4c32)c1 (racemic) | 21 nM | 0.6 | 87% | – | – | –
COC(=O)[C@@]1(Cc2cccc(F)c2)CCc2cnc3c(-c4ccc(C(F)(F)F)cc4)cnn3c21 | 3 nM | 0.96 | 92% | 9 nM | 81% | –
COC(=O)[C@@]1(Cc2cccc(F)c2)NCc2cnc3c(-c4ccc(C(F)(F)F)cc4)c(C(C)(C)O)nn3c21 | 530 nM | 0.51 | 58% | – | – | –
OCc1nn2c3c(cnc2c1-c1ccc(C(F)(F)F)cc1)CN[C@]3(Cc1cccc(F)c1)C1CC1 | 2 nM | 0.9 | 88% | – | – | solubility [4]: 6 µM (≈ 2.89 µg/mL)
COC(=O)C1(Cc2ccccc2)CCc2cnc3c(-c4ccc(C(F)(F)F)cc4)cnn3c21 (racemic) | 2 nM | 0.93 | 82% | 17 nM | 91% | –
CCOC(=O)[C@](C)(Cc1ccccc1)c1c(Cl)cnc2c(-c3ccc(C(F)(F)F)cc3)cnn12 | 3 nM | – | 75% | 8 nM | 73% | –
COCCN(C)C(=O)[C@@]1(Cc2cccc(F)c2)NCc2cnc3c(-c4ccc(C(F)(F)F)cc4)cnn3c21 | 2 nM | 0.9 | 90% | – | – | AUC/dose [3]: 0.07 µM·h; solubility [4]: < 5 µM
COC(=O)[C@@]1(Cc2cccc(F)c2)NCc2cnc3c(-c4ccc(C(F)(F)F)nc4)c(CO)nn3c21 | 15 nM | 0.82 | 101% | – | – | Efficacy ([5]; tested as the 2H-labelled form): 87%; solubility [4]: 99 µM (≈ 49.6 µg/mL)
COC(=O)C1(Cc2ccccc2)CCc2cnc3c(-c4ccc(S(C)(=O)=O)cc4)cnn3c21 (racemic) | 125 nM | 0.89 | 81% | – | – | –
CCOC(=O)[C@](C)(Cc1ccccc1)c1cc(C)nc2c(-c3ccc(Cl)cc3)cnn12 | > 10 nM | – | 15% | – | – | –
CCOC(=O)[C@@]1(Cc2ccccc2)CCCc2cnc3c(-c4ccc(C(F)(F)F)cc4)cnn3c21 | 8 nM | 0.71 | 75% | 27 nM | 59% | –
CCOC(=O)[C@@]1(Cc2ccccc2)CCc2cnc3c(-c4ccc(C(F)(F)F)cc4)cnn3c21 | 0.5 nM | 0.96 | 85% | 8 nM | 80% | hepatic extraction ratio [8]: 0.6; hepatic extraction ratio [9]: 0.6; AUC/dose [3]: 0.3 µM·h

Structure (SMILES) | EC50 [1] | hepatic extraction ratio [2] | Efficacy [5] | EC50 [6] | Efficacy [7] | also measured
COC(=O)C1(Cc2ccccc2)CCc2cnc3c(-c4ccc(C#N)cc4)cnn3c21 (racemic) | 7 nM | – | 55% | – | – | –
CCOC(=O)[C@](C)(Cc1ccccc1)c1c(C)cnc2c(-c3ccc(C(F)(F)F)cc3)cnn12 | 1 nM | 0.3 | 80% | 11 nM | 62% | hepatic extraction ratio [8]: 0.3; hepatic extraction ratio [9]: 0.3; AUC/dose [3]: 0.6 µM·h
CC1(Cc2cccc(F)c2)NCc2cnc3c(-c4ccc(C(F)(F)F)cc4)cnn3c21 (racemic) | 436 nM | – | 77% | – | – | –
COC(=O)C1(Cc2ccccc2)OCc2cnc3c(-c4ccc(C(F)(F)F)cc4)cnn3c21 (racemic) | 34 nM | 0.96 | 77% | 35 nM | 78% | –
CCOC(=O)C1(Cc2ccccc2)CCc2cnc3c(-c4ccc(Oc5ccccc5)cc4)cnn3c21 (racemic) | 20 nM | – | 60% | – | – | –
COC(=O)[C@@]1(Cc2cccc(F)c2)N=Cc2cnc3c(-c4ccc(C(F)(F)F)cc4)cnn3c21 | 73 nM | 0.97 | 84% | 135 nM | 80% | –
CCOC(=O)[C@@]1(Cc2ccccc2)CCc2cnc3c(-c4ccc(Cl)cc4)cnn3c21 | 3 nM | 0.79 | 73% | 11 nM | 78% | –
COC(=O)[C@@]1(Cc2cccc(F)c2)NCc2cnc3c(-c4ccc(C(F)(F)F)cc4)c(C(N)=O)nn3c21 | 20 nM | 0.92 | 74% | – | – | solubility [4]: 39 µM (≈ 20 µg/mL)
CCOC(=O)C1(Cc2cccc(F)c2)NC(=O)c2cnc3c(-c4ccc(C(F)(F)F)cc4)cnn3c21 (racemic) | 298 nM | – | 81% | – | – | –
OCc1nn2c3c(cnc2c1-c1ccc(C(F)(F)F)nc1)CN[C@]3(Cc1cccc(F)c1)C1CC1 | 6 nM | 0.93 | 82% | – | – | solubility [4]: 36 µM (≈ 17.4 µg/mL)
COC(=O)[C@@]1(Cc2cccc(F)c2)NCc2cnc3c(-c4ccc(C(F)(F)F)cc4)cnn3c21 | 3 nM | 0.95 | 91% | 14 nM | 88% | AUC/dose [3]: 0.31 µM·h
COC(=O)C1(Cc2ccccc2)COc2cnc3c(-c4ccc(C(F)(F)F)cc4)cnn3c21 (racemic) | 11 nM | 0.88 | 83% | 15 nM | 76% | –
COC(=O)[C@@]1(Cc2cccc(F)c2)NCc2cnc3c(-c4ccc(C(F)(F)F)cc4)c(CO)nn3c21 | 5 nM | 0.82 | 99% | – | – | Efficacy ([5]; tested as the 2H-labelled form): 103%; AUC/dose [3]: 7.65 µM·h; solubility [4]: 58 µM (≈ 29 µg/mL); Activity [10]: 29%; Activity [11]: 1%; Activity [12]: 11%; Activity [13]: 37%
CCOC(=O)C1(Cc2ccccc2)c2c(cnc3c(-c4ccc(C(F)(F)F)cc4)cnn23)CN1C (racemic) | 214 nM | – | 55% | – | – | –
[2H]C([2H])(O)c1nn2c3c(cnc2c1-c1ccc(C(F)(F)F)nc1)CN[C@]3(Cc1cccc(F)c1)C(=O)OC | 35 nM | 0.85 | – | – | – | AUC/dose [3]: 6.56 µM·h; solubility [4]: 83 µM (≈ 41.8 µg/mL)
CCOC(=O)[C@](C)(Cc1ccccc1)c1ccnc2c(-c3ccc(C(F)(F)F)cc3)c(C)nn12 | 23 nM | – | 83% | 24 nM | 72% | –
